For experiment [1], the system named is mdx mouse model of Duchenne Muscular Dystrophy. The experiment can be described thus: Whole Body Plethysmography respiration monitoring, mdx mice, 22 weeks daily s.q. dosing. Format: in vivo. As to the method:
Animals. Male C57BL/10SnJ, hereafter referred to as wild-type (WT), and male mdx C57B1/10ScSn-Dmdmdx mice were used in the study. All protocols were approved by the University of Michigan (UM) UCUCA and all studies were performed in facilities run by the University of Michigan Unit of Laboratory Animal Medicine. […] Mice were purchased from Jackson Laboratories and aged in UM facilities. All ages given are ±2 weeks. Mice were randomized into groups upon receipt from Jackson Laboratories in order to minimize the need for additional cages. […] All compounds were administered subcutaneously.
Respiration was monitored using a Buxco Whole Body Plethysmography (WBP) monitoring chambers for mouse Cat. No. PLY4211 (Buxco Research Systems, Wilmington, N.C.) according to the manufacturer's instructions. In this protocol animals are unrestrained and un-anesthetized. Monitoring was performed in the room in which the animals were housed. The mice were monitored for 2 months prior to initiation of treatment to acclimate the mice to the procedure and establish baseline respiratory parameters done with the last weeks reading prior to initiation of dosing. Mice were randomized into groups based on tidal volume measurements. Upon initiation of dosing, mice were monitored every 2 weeks. Mice were placed in monitoring chambers and allowed to acclimate for 15 minutes prior to recording respiratory parameters. Respiration was then monitored for 10 minutes. Each mouse was monitored in the same chamber for each reading throughout the study to minimize variability.
During acclimation and measurements, the room door was shut and technician movement and room noise was kept to a minimum to allow for complete acclimation. […] Chambers were wiped clean between animals. Data was monitored and collected using FinePoint software (Cat. No. SFT4000) purchased from Buxco Research Systems (Wilmington, N.C.). […] Comparisons between groups of daily, every other day or weekly dosed animals were done by one-way ANOVA using the Neumann-Keuls post-hoc test. Significance was P<0.05. N=10-12 animals per group.
Abbreviations used include the following (units): F, respiration rate (breaths/minute), TV, tidal volume, (ml); TV/BWT, ratio of tidal volume to body weight, (mL/kg); MV, minute volume, (mL/min); Penh, enhanced pause, (no units); Rpef, the ratio of the time from start of expiration to peak expiratory flow to Te (no units); PIF, peak inspiratory flow, (mL sec); PEF, peak expiratory flow, (mL/sec); Te, expiratory time (sec); Ti, inspiratory time, (sec); Tr, relaxation time, (sec).
Respiration was monitored every 2 weeks by WBP.

Experiment [2] relates to diaphragm muscle of mdx mice. The experiment can be described thus: Diaphragm histology (centralized nuclei, fiber size and density, fibrosis), mdx mice. The class given is in vivo, mouse. To be noted: prednisone 1 mg/kg QD s.q., 22 weeks. As to the method:
Analysis of centralized nuclei. One marker of degeneration is the amount of compensatory regeneration occurring within the muscle. Since newly regenerating fibers have centrally located nuclei, the percentage of fibers with centralized nuclei (CN) from the diaphragm of each animal was determined (FIG. 2A).
Analysis of fiber size and density. The cross-sectional area of regenerating or recently regenerated fibers is expected to be smaller than that of mature muscle fibers. The cross sectional area of approximately 50 muscle fibers was measured from each mouse (600 fibers/group).
Analysis of fibrosis. Fibrosis was measured as the percentage of […] area/total area in Masson's trichrome stained sections.

Where [3] appears, read: Table 3, prednisone 1 mg/kg daily, 22 wks, mean ± S.D.
Setting [4] is: prednisone 1 mg/kg QD s.q., 22 weeks, mean ± S.D.

Molecules are shown by their SMILES. “Also recorded” adds a separate entry of the source. Marks after values point to notes of the source that are not given here.

Consider `C[C@]12C=CC(=O)C=C1CC[C@@H]1[C@@H]2C(=O)C[C@@]2(C)[C@H]1CC[C@]2(O)C(=O)CO` [Prednisone, prednisone], for which, in experiment [1] (setting [3]), the “TV, 22 wks” value stood at 0.332 ± 0.021 mL and the “TV/BW, 22 wks” value was determined as 9.9 ± 1.2 mL/kg. In addition, in experiment [1] (prednisone 1 mg/kg QD s.q., 22 weeks), the “increase in TV/BW compared with mdx saline (cause)” value is “due to a loss of body weight and not due to improvement in TV”. In experiment [1] (setting [4]), the “F (respiration rate)” value stood at 328 ± 30 breaths/min, the “MV (minute volume)” value is 107 ± 11^b ml/min, the “PEF (peak expiratory flow)” value is on record as 4.2 ± 0.4^b mL/sec and the “PIF (peak inspiratory flow)” value is recorded as 8.3 ± 0.8^c mL/sec. Further, in experiment [1] (setting [4]), the “Penh (enhanced pause)” value is 0.393 ± 0.080, the Rpef is recorded as 0.496 ± 0.085, the “TV (tidal volume)” value is 0.332 ± 0.021^c mL and the “Ti (inspiratory time)” value is 0.068 ± 0.006 s. Moreover, the “Tr (relaxation time)” value in experiment [1] (setting [4]) amounted to 0.094 ± 0.018 s. In experiment [2], the “percentage of fibers with centralized nuclei (CN), diaphragm” value is on record as “nearly the same percentage of fibers with CN as the mdx saline group; also recorded: higher percentage of muscle fibers in the regeneration process than in the P-188 treated groups”.

The values are drawn from patent US20150190421A1, “POLOXAMERS FOR THE IMPROVEMENT OF RESPIRATORY FUNCTION” (PHRIXUS PHARMACEUTICALS, INC., priority 2012, published 2015).
